Data on twelve molecules can be found in EP2177496A1, “New analogs of polysphorin and uses thereof for treating or preventing malaria” (Assistance Publique - Hôpitaux de Paris, priority 2008, dated 2010).

The test system of series [1] is P. falciparum. As to the kind of experiment: In vitro activity against erythrocytic stage of P. falciparum ([3H]-hypoxanthine incorporation). Type of series: cell-based, chloroquine-sensitive (3D7w) clone of P. falciparum. As to conditions: read-out: IC50 (µM) Erythrocytic stage P. falciparum. How it is done: After 48 hours, [^3H]-hypoxanthine (Amersham) was added to each well and then plates were incubated for 24 hours. Parasites were harvested, and incorporation of radioactivity was determined by liquid scintillation counting (Beckman LS1701, les Ulis, France). The counts-per-minute (cpm) was adjusted relative to controls to obtain percentages of inhibition. […] This estimation was obtained with IC50 estimator software. For the assay, the parasites were synchronized by D-sorbitol treatment.

A further series is described as follows: in vitro. Particulars: human, TC50 (µM) Hepatic stage (rodent) P. yoelii, 50% toxic concentration, MTT assay. How it is done:
(§1) A preliminary screening was performed consisting in the infection of human CD81 transfected hepatocarcinome cell line HepG2 (HepG2/CD81) with P. yoelii. IC50 (inhibiting concentration 50), TC50 (toxic concentration 50) and TI (therapeutic index, ratio TC50/IC50) were estimated for each drug tested. Selected molecules (small IC50, high TC50 and high TI) were analyzed in human hepatocytes. Briefly, HepG2 cells were plated in 96-well plates for 24 h prior to inoculation with 1x10^4 of P. yoelii sporozoites. Sporozoites-inoculated culture plates were centrifuged for 5 min at 1,500 rpm at 4°C in order to enhance the infection rate as described by Gruner (Gruner et al., 2005). After 3h at 37°C, the cultures were washed and further incubated in fresh medium for 48 h (P. yoelii) before quantification of infected cells in triplicate wells.
(§2) Toxicity was determined by using the colorimetric 3-(4,5-dimethylthiazol-2-yl)-2,5-diphenyltetrazolium bromide (MTT) assay (Mosman., 1983). Briefly, HepG2 cells cultures were prepared in 96-well plates as described above. Drugs were tested in triplicate wells at eight concentrations ranging from 6.4 × 10^-3 µM to 200 µM. One hundred microliters of 0.5 mg/ml MTT (5 mg/ml MTT in water diluted 10x in William's medium without fetal bovine serum) was added to each well, and the plates were incubated for 4 h (37°C, 5% CO2). The medium was discarded, and the cells were resuspended in ethanol and dimethyl sulfoxide (50/50, vol/vol). The plates were read in an enzyme-linked immunosorbent assay plate reader (550-nm absorbance wavelength and 620-nm reference wavelength). The results were expressed as the percent change in viability compared to drug-free control cultures. […] Each drug and concentration was tested at least in triplicate. The selectivity index (SI) was defined as the ratio of the TC50 to the IC50.

Another series concerns P. yoelii. As to the kind of experiment: In vitro activity against hepatic stage of P. yoelii (sporozoite-infected HepG2/CD81 cells or rodent hepatocytes, liver-schizont count). Type of series: cell-based, P. yoelii (265 BY strain). As to conditions: rodent parasite P. yoelii, cultures arrested at 48 h. The procedure:
(§3) Activity against pre-erythrocytic stages was tested by in vitro assays with the human parasite P. falciparum (NF54 strain) and the rodent parasite P. yoelii (265 BY strain). The rodent parasite P. yoelii is produced in the insectarium of the INSERM Unit U511 and human parasite P. falciparum was obtained from collaboration with R. Sauerwein.
(§4) Sporozoites were obtained from infected salivary glands of Anopheles stephensi mosquitoes fed on continuous culture of P. falciparum (coll R. Sauerwein, Netherlands), or on P. yoelii parasitized mice (insectarium of the INSERM Unit U511). After aseptic dissection, salivary glands were homogenized in a glass grinder and diluted in culture medium or sterile phosphate-buffered saline (PBS).
(§5) Primary cultures of rodent or human hepatocytes were prepared from liver segments taken from mouse or from adult patients undergoing partial hepatectomy. Hepatocytes were isolated using the two-step enzymatic perfusion technique (Guguen-Guillouzo et al., 1982) and were further purified on a discontinuous Percoll gradient. Then, hepatocytes were seeded in eight-chamber Lab-Tek permanox slides at a density of 1,4x10^5 cells per cm^2, and maintained under culture conditions as described in Mahmoudi et al., 2003. After complete adherence to culture plates, rodent and human hepatocytes were infected with P. yoelii or P. falciparum sporozoites, respectively, aseptically dissected from mosquitoes' salivary glands, as described above. Hepatocytes were inoculated with 6x10^4 sporozoites per Lab-Tek well. Compounds to be tested were added at the time of infection and/or after penetration of the sporozoites and at different concentrations (three wells per dilution). Every day, medium was replaced by fresh medium containing or not different concentrations of the molecules to be tested. Cultures were arrested at 48 hours (P. yoelii) or 6 days (P. falciparum) and cells were fixed with methanol. Liver-schizonts were quantified by microscopic examination after fluorescent labeling using a primary mouse antibody directed against Plasmodium heat shock protein-70 (Renia et al., 1990) produced in INSERM unit 511 and a secondary goat anti-mouse antibody conjugated with fluorescein isothiocyanate (Sigma Aldrich).

Series [2] in a line: MTT toxicity assay reported with the erythrocytic stage (TC50), cells not named. Type of series: cell-based. Particulars: 50% toxic concentration, read-out: TC50 (µM) Erythrocytic stage P. falciparum. The source says: The selectivity index (SI) was defined as the ratio of the TC50 to the IC50.
A further series concerns HepG2 cells. In words: in vitro. As to conditions: read-out: TC50 (µM) Hepatic stage (rodent) P. yoelii; 50% toxic concentration, MTT assay. The procedure: as §1, §2
For orientation: Formazan colour is commonly taken as a measure of viable cells.

Series [3] has as its system P. falciparum. As to the kind of experiment: In vitro activity against hepatic stage of P. falciparum in primary human hepatocytes (liver-schizont count). Type of series: cell-based, P. falciparum (NF54 strain). Particulars: cultures arrested at 6 days. How it is done: as §3, §4
as §5, with “Every day, medium was replaced by fresh medium containing or not different concentrations of the molecules to be tested. Cultures were arrested at 48 hours (P. yoelii) or 6 days (P. falciparum) and cells were fixed with methanol.” left out

The nature of series [4]: MTT toxicity assay on human hepatocytes (TC50). How it is done: Cytotoxic effect of the compounds was evaluated on human hepatocytes, obtained as described above. The colorimetric MTT assay was used (Mosman., 1983). Briefly, hepatocyte cultures were prepared in 96-well plates as described above. Drugs were tested in triplicate wells at eight concentrations ranging from 6.4 x 10^-3 µM to 200 µM. One hundred microliters of 0.5 mg/ml MTT (5 mg/ml MTT in water diluted 10x in William's medium without fetal bovine serum) was added to each well, and the plates were incubated for 4 h (37°C, 5% CO2). The medium was discarded, and the cells were resuspended in ethanol and dimethyl sulfoxide (50/50, vol/vol). The plates were read in an enzyme-linked immunosorbent assay plate reader (550-nm absorbance wavelength and 620-nm reference wavelength). The results were expressed as the percent change in viability compared to drug-free control cultures. […] Each drug and concentration was tested at least in triplicate. The selectivity index (SI) was defined as the ratio of the TC50 to the IC50.

[5] abbreviates: Plasmodium yoelii, Hepatocyte, 48 h.
Where [6] appears, read: Plasmodium falciparum, Erythrocyte, 72 h, ring stage parasitized erythrocytes, 3D7w clone, 48 h + 24 h with [3H]-hypoxanthine.
[7] abbreviates: ring stage parasitized erythrocytes, 3D7w clone, 48 h + 24 h with [3H]-hypoxanthine.

SMILES strings stand for the structures. A value given as a limit tells only on which side of the number the result lay.

The IC50 is the concentration that gives 50% inhibition. For `CCN(CC)CCCC(C)Nc1ccnc2cc(Cl)ccc12` (centres unmarked) [Chloroquine, reference compound], in the series on P. falciparum [1] (Plasmodium falciparum, Erythrocyte, 72 h), the half-inhibitory concentration (IC50) amounted to 0.04 µM.

`COc1cc(NC(C)CCCN)c2ncccc2c1` (centres unmarked) [Primaquine, reference compound]: in “in vitro”, the CC50 was 12.6 µM.

Turning to `COc1cccc(OC)c1OC(C)C(O)c1ccc2c(c1)OC(F)(F)O2` (centres unmarked) [drawing 70], the IC50 with P. yoelii (setting [5]) is 20.1 µM; with P. falciparum [1] (setting [6]), above 40 µM. In addition, the CC50 was 54.9 µM in the series “in vitro” and 55 µM in series [2].

On to `COc1cccc(OC)c1OC(C)C(O)c1ccc2c(c1)OC(F)(F)O2` (centres unmarked) [drawing 71], for which the IC50 in the series on P. yoelii was 20.2 µM; in the series with P. falciparum [1] (setting [7]) it was above 40 µM. Further, the CC50 in series [2] came to 53 µM.

In the case of `COc1cc(C)cc(OC)c1OC(C)C(O)c1ccc2c(c1)OC(F)(F)O2` (centres unmarked) [drawing 72], the IC50 with P. yoelii was 19 µM; in the series with P. falciparum [1] (setting [6]), 13.6 µM. The figures for the CC50 (in the series “in vitro”; in series [2]) were 56.8 µM and 57 µM, respectively.

Consider `COc1cc(C)cc(OC)c1OC(C)C(O)c1ccc2c(c1)OC(F)(F)O2` (centres unmarked) [drawing 73], for which the values for the IC50 in the series on P. yoelii and in the series on P. falciparum [1] (setting [7]) were 5.62 µM and 13.5 µM, respectively. In addition, the CC50 (in the series on HepG2 cells; in series [2]) was 53.7 µM throughout.

For `COc1cc(C(O)C(C)Oc2c(OC)cccc2OC)cc(OC)c1OC` (centres unmarked) [drawing 74], the IC50 with P. yoelii was 28.6 µM; with P. falciparum [1] (setting [6]), above 40 µM. The CC50 with HepG2 cells was found to be 57.9 µM; in series [2] it was 58 µM.

Consider `COc1cc(C(O)C(C)Oc2c(OC)cccc2OC)cc(OC)c1OC` (centres unmarked) [drawing 75], for which the IC50 in the series on P. yoelii amounted to 2.52 µM. Also, the CC50 in the series with HepG2 cells came out at 0.126 µM.

With `COc1cc(C(O)C(C)Oc2c(OC)cc(C)cc2OC)cc(OC)c1OC` (centres unmarked) [drawing 76], the 50% inhibitory concentration (IC50) in the series with P. yoelii was 50.1 µM; in the series with P. falciparum [1] (setting [6]), above 40 µM. Moreover, the CC50 (in the series “in vitro”; in series [2]) was 47 µM each time.

For the molecule `COc1cc(C(O)C(C)Oc2c(OC)cc(C)cc2OC)cc(OC)c1OC` (centres unmarked) [drawing 77], the IC50 with P. yoelii is 0.0045 ± 0.005 µM; with P. falciparum [3] (Plasmodium falciparum, Hepatocyte, 144 h) it was 0.38 µM; with P. falciparum [1] (setting [7]), above 40 µM. For the same molecule, the figures for the CC50 (with HepG2 cells; in series [4]; in series [2]) were 49.5 µM, 125 µM and 49.5 µM, respectively.

`COc1cc(C(O)C(C)Oc2c(OC)cc(-c3ccccc3)cc2OC)cc(OC)c1OC` (centres unmarked) [drawing 78]: the values for the IC50 in the series on P. yoelii (setting [5]), in the series with P. falciparum [3] and in the series on P. falciparum [1] (setting [6]) were 3.54 ± 4.9 µM, 0.02 µM and 11.5 µM, respectively. Also, the results for the CC50 (in “in vitro”; in series [4]; in series [2]) were above 50 µM, 50 µM and 50 µM, respectively.

Consider `COc1cc(C(O)C(C)Oc2c(OC)cc(-c3ccccc3)cc2OC)cc(OC)c1OC` (centres unmarked) [drawing 79], for which the 50% inhibitory concentration (IC50) amounted to 3.61 ± 4 µM with P. yoelii, 0.007 µM in the series with P. falciparum [3] and 20 µM in the series with P. falciparum [1] (setting [7]). In addition, the CC50 in the series with HepG2 cells was above 50 µM; in series [2], 50 µM.
